Consider 28 compounds from patent US20230081390A1, “INHIBITORS OF RAF KINASES” (Kinnate Biopharma Inc., priority 2019, published 2023).

Bounds are passed on as bounds.

The assay deals with human RAF1 (Homo sapiens, UniProt P04049). The assay can be described thus: Protein kinase assay (33P-ATP filter binding), human RAF1, 10-dose IC50. It is filed as biochemical. To be noted: MEK1 (K97R) substrate 3 micromolar, ATP 10 micromolar, read-out: RAF-1 IC50. Summed up: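 Radiometric filter-binding format: 10 µM ATP, 3 µM MEK1 (K97R) as substrate for human RAF1, 2 hr at room temperature in 20 mM HEPES pH 7.5 with 10 mM MgCl2. Compounds were dispensed acoustically from DMSO. IC50 came from percent kinase activity relative to vehicle over a 10-dose series.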
human RAF1, sequence (P04049 whole entry): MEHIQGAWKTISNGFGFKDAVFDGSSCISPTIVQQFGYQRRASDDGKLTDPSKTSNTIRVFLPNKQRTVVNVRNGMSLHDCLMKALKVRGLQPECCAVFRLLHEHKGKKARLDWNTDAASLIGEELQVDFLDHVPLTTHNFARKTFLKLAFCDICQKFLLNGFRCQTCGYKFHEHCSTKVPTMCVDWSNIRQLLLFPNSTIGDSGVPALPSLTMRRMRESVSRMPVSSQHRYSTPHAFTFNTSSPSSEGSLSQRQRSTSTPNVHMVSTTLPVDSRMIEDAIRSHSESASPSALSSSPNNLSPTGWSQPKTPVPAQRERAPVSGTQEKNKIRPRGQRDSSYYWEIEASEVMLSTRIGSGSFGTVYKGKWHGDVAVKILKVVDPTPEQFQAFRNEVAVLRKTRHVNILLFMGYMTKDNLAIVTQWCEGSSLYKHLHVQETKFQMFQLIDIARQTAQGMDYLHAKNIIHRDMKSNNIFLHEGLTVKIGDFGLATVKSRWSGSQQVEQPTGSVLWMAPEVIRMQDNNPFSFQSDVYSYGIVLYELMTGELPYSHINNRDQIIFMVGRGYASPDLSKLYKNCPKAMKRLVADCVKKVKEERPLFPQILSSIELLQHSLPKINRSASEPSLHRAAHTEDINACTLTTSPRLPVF

What is called IC50 is the concentration needed to halve the response being measured. For the compound `Cc1cc(F)c(NC(=O)N2CCC3(CCC3)C2)cc1-c1cc(OCCO)nc(N2CCOCC2)c1` [Example 26, N-[2-fluoro-5-[2-(2-hydroxyethoxy)-6-(morpholin-4-yl)pyridin-4-yl]-4-methylphenyl]-6-azaspiro[3.4]octane-6-carboxamide], the IC50 was less than 0.01 µM.

In the case of `Cc1cc(F)c(NC(=O)N2CCCC3(COC3)C2)cc1-c1cc(OCCO)nc(N2CCOCC2)c1` [Example 27, N-[2-fluoro-5-[2-(2-hydroxyethoxy)-6-(morpholin-4-yl)pyridin-4-yl]-4-methylphenyl]-2-oxa-6-azaspiro[3.5]nonane-6-carboxamide], the IC50 is 0.01 to 0.1 µM.

In the case of `Cc1cc(F)c(NC(=O)N2CC3C(C2)C3(F)F)cc1-c1cc(OCCO)nc(N2CCOCC2)c1` (stereo not shown) [Example 28, 6,6-difluoro-N-[2-fluoro-5-[2-(2-hydroxyethoxy)-6-(morpholin-4-yl)pyridin-4-yl]-4-mehtylphenyl]-3-azabicyclo[3.1.0]hexane-3-carboxamide], the IC50 is 0.01 to 0.1 µM.

For `Cc1cc(F)c(NC(=O)NCC(F)(F)C(F)(F)F)cc1-c1cc(OCCO)nc(N2CCOCC2)c1` [Example 35, 1-[2-fluoro-5-[2-(2-hydroxyethoxy)-6-(morpholin-4-yl)pyridin-4-yl]-4-methylphenyl]-3-(2,2,3,3,3-pentafluoropropyl)urea], the half-maximal inhibitory concentration (IC50) is less than 0.01 µM.

As to `Cc1cc(F)c(NC(=O)N2CC[C@H](CC(F)(F)F)C2)cc1-c1cc(OCCO)nc(N2CCOCC2)c1` [Example 36, (3R)-N-[2-fluoro-5-[2-(2-hydroxyethoxy)-6-(morpholin-4-yl)pyridin-4-yl]-4-methylphenyl]-3-(2,2,2-trifluoroethyl)pyrrolidine-1-carboxamide], the 50% inhibitory concentration (IC50) was less than 0.01 µM.

`Cc1cc(F)c(NC(=O)N2CCCC3(CCC3)C2)cc1-c1cc(OCCO)nc(N2CCOCC2)c1` [Example 38, N-[2-fluoro-5-[2-(2-hydroxyethoxy)-6-(morpholin-4-yl)pyridin-4-yl]-4-methylphenyl]-6-azaspiro[3.5]nonane-6-carboxamide]: the half-maximal inhibitory concentration (IC50) was less than 0.01 µM.

In the case of `Cc1cc(F)c(NC(=O)N2C[C@@H](N)C[C@@H](C(F)(F)F)C2)cc1-c1cc(OCCO)nc(N2CCOCC2)c1` [Example 40, (3S,5R)-3-amino-N-[2-fluoro-5-[2-(2-hydroxyethoxy)-6-(morpholin-4-yl)pyridin-4-yl]-4-methylphenyl]-5-(trifluoromethyl)piperidine-1-carboxamide], the IC50 was less than 0.01 µM.

Turning to `Cc1cc(F)c(NC(=O)N2CCC3(COC3)C2)cc1-c1cc(OCCO)nc(N2CCOCC2)c1` [Example 41, N-[2-fluoro-5-[2-(2-hydroxyethoxy)-6-(morpholin-4-yl)pyridin-4-yl]-4-methylphenyl]-2-oxa-6-azaspiro[3.4]octane-6-carboxamide], the IC50 was 0.01 to 0.1 µM.

As for `COC1(C(F)(F)F)CCCN(C(=O)Nc2cc(-c3cc(OCCO)nc(N4CCOCC4)c3)c(C)cc2F)C1` (stereo not shown) [Example 42, N-[2-fluoro-5-[2-(2-hydroxyethoxy)-6-(morpholin-4-yl)pyridin-4-yl]-4-methylphenyl]-3-methoxy-3-(trifluoromethyl)piperidine-1-carboxamide], the IC50 was less than 0.01 µM.

For `Cc1cc(F)c(NC(=O)NC2CC2C(F)(F)F)cc1-c1cc(OCCO)nc(N2CCOCC2)c1` (stereo not shown) [Example 43, 1-[2-fluoro-5-[2-(2-hydroxyethoxy)-6-(morpholin-4-yl)pyridin-4-yl]-4-methylphenyl]-3-[2-(trifluoromethyl)cyclopropyl]urea], the IC50 is less than 0.01 µM.

Turning to `Cc1cc(F)c(NC(=O)N2C[C@@H](O)C[C@@H](C(F)(F)F)C2)cc1-c1cc(OCCO)nc(N2CCOCC2)c1` [Example 44, (3S,5R)-N-[2-fluoro-5-[2-(2-hydroxyethoxy)-6-(morpholin-4-yl)pyridin-4-yl]-4-methylphenyl]-3-hydroxy-5-(trifluoromethyl) piperidine-1-carboxamide], the IC50 was less than 0.01 µM.

In the case of `Cc1cc(F)c(NC(=O)N2CCC(CF)(C(F)(F)F)C2)cc1-c1cc(OCCO)nc(N2CCOCC2)c1` (stereo not shown) [Example 45, N-[2-fluoro-5-[2-(2-hydroxyethoxy)-6-(morpholin-4-yl)pyridin-4-yl]-4-methylphenyl]-3-(fluoromethyl)-3-(trifluoromethyl)pyrrolidine-1-carboxamide], the IC50 was less than 0.01 µM.

On to `Cc1cc(F)c(NC(=O)N2CCCCC(F)(F)C2)cc1-c1cc(OCCO)nc(N2CCOCC2)c1` [Example 46, 3,3-difluoro-N-[2-fluoro-5-[2-(2-hydroxyethoxy)-6-(morpholin-4-yl)pyridin-4-yl]-4-methylphenyl]azepane-1-carboxamide], for which the IC50 was in the range of 0.01 to 0.1 µM.

For the compound `Cc1cc(F)c(NC(=O)NCC2(C(F)(F)F)CCC2)cc1-c1cc(OCCO)nc(N2CCOCC2)c1` [Example 49, 1-[2-fluoro-5-[2-(2-hydroxyethoxy)-6-(morpholin-4-yl)pyridin-4-yl]-4-methylphenyl]-3-[[1-(trifluoromethyl)cyclobutyl]methyl]urea], the 50% inhibitory concentration (IC50) was less than 0.01 µM.

As to `Cc1cc(F)c(NC(=O)N2CCCC(N)(C(F)(F)F)C2)cc1-c1cc(OCCO)nc(N2CCOCC2)c1` (stereo not shown) [Example 54, 3-amino-N-[2-fluoro-5-[2-(2-hydroxyethoxy)-6-(morpholin-4-yl)pyridin-4-yl]-4-methylphenyl]-3-(trifluoromethyl)piperiidne-1-carboxamide], the concentration for half-maximal inhibition (IC50) is less than 0.01 µM.

Take `Cc1cc(F)c(NC(=O)N2C[C@H](N)C[C@H](C(F)(F)F)C2)cc1-c1cc(OCCO)nc(N2CCOCC2)c1` [Example 55, (3R,5S)-3-amino-N-[2-fluoro-5-[2-(2-hydroxyethoxy)-6-(morpholin-4-yl)pyridin-4-yl]-4-methylphenyl]-5-(trifluoromethyl)piperidine-1-carboxamide]: the IC50 was less than 0.01 µM.

On to `Cc1cc(F)c(NC(=O)NC(C)CC(F)(F)F)cc1-c1cc(OCCO)nc(N2CCOCC2)c1` (stereo not shown) [Example 57, 1-[2-fluoro-5-[2-(2-hydroxyethoxy)-6-(morpholin-4-yl)pyridin-4-yl]-4-methylphenyl]-3-(4,4,4-trifluorobutan-2-yl)urea], for which the IC50 is less than 0.01 µM.

Regarding `Cc1cc(F)c(NC(=O)N2CC=C(C(F)(F)F)C2)cc1-c1cc(OCCO)nc(N2CCOCC2)c1` [Example 72, N-[2-fluoro-5-[2-(2-hydroxyethoxy)-6-(morpholin-4-yl)pyriidn-4-yl]-4-methylphenyl]-3-(trifluoromethyl)-2,5-dihydropyrrole-1-carboxamide], the half-maximal inhibitory concentration (IC50) is less than 0.01 µM.

Take `Cc1cc(F)c(NC(=O)N2CCC3(CCCC3)C2)cc1-c1cc(OCCO)nc(N2CCOCC2)c1` [Example 73, N-(2-fluoro-5-(2-(2-hydroxyethoxy)-6-morpholinopyridin-4-yl)-4-methylphenyl)-2-azaspiro[4.4]nonane-2-carboxamide]: the half-maximal inhibitory concentration (IC50) was less than 0.01 µM.

As to `Cc1cc(F)c(NC(=O)N2CCC(C(O)C(F)(F)F)C2)cc1-c1cc(OCCO)nc(N2CCOCC2)c1` (stereo not shown) [Example 76, N-[2-fluoro-5-[2-(2-hydroxyethoxy)-6-(morpholin-4-yl)pyridin-4-yl]-4-methylphenyl]-3-(2,2,2-trifluoro-1-hydroxyethyl)pyrrolidine-1-carboxamide], the IC50 was less than 0.01 µM.

With `Cc1cc(F)c(NC(=O)N2CC=C(C(F)(F)C(F)(F)F)C2)cc1-c1cc(OCCO)nc(N2CCOCC2)c1` [Example 79, N-[2-fluoro-5-[2-(2-hydroxyethoxy)-6-(morpholin-4-yl)pyridin-4-yl]-4-methylphenyl]-3-(1,1,2,2,2-pentafluoroethyl)-2,5-dihydropyrrole-1-carboxamide], the IC50 was less than 0.01 µM.

For the compound `Cc1cc(F)c(NC(=O)N2CCO[C@@H](C(F)(F)F)C2)cc1-c1cnc(OC2CCOCC2)c(N2CCOCC2)c1` [Example 87, (2R)-N-[2-fluoro-4-methyl-5-[5-(morpholin-4-yl)-6-(oxan-4-yloxy)pyridin-3-yl]phenyl]-2-(trifluoromethyl)morpholine-4-carboxamide], the IC50 is less than 0.01 µM.

Take `Cc1cc(F)c(NC(=O)N2CC/C(=C/C(F)(F)F)C2)cc1-c1cc(OCCO)nc(N2CCOCC2)c1` [Example 92, (Z)-N-(2-fluoro-5-(2-(2-hydroxyethoxy)-6-morpholinopyridin-4-yl)-4-methylphenyl)-3-(2,2,2-trifluoroethylidene)pyrrolidine-1-carboxamide]: the IC50 is less than 0.01 µM.

Consider `Cc1cc(F)c(NC(=O)N2CC/C(=C\C(F)(F)F)C2)cc1-c1cc(OCCO)nc(N2CCOCC2)c1` [Example 93, (E)-N-(2-fluoro-5-(2-(2-hydroxyethoxy)-6-morpholinopyridin-4-yl)-4-methylphenyl)-3-(2,2,2-trifluoroethylidene)pyrrolidine-1-carboxamide], for which the IC50 was less than 0.01 µM.

`C/C(=C1\CCN(C(=O)Nc2cc(-c3cc(OCCO)nc(N4CCOCC4)c3)c(C)cc2F)C1)C(F)(F)F` [Example 94, (3Z)-N-[2-fluoro-5-[2-(2-hydroxyethoxy)-6-(morpholin-4-yl)pyridin-4-yl]-4-methylphenyl]-3-(1,1,1-trifluoropropan-2-ylidene)pyrrolidine-1-carboxamide]: the IC50 is less than 0.01 µM.

Consider `C/C(=C1/CCN(C(=O)Nc2cc(-c3cc(OCCO)nc(N4CCOCC4)c3)c(C)cc2F)C1)C(F)(F)F` [Example 95, (3E)-N-[2-fluoro-5-[2-(2-hydroxyethoxy)-6-(morpholin-4-yl)pyridin-4-yl]-4-methylphenyl]-3-(1,1,1-trifluoropropan-2-ylidene)pyrrolidine-1-carboxamide], for which the IC50 was less than 0.01 µM.

As for `Cc1cc(F)c(NC(=O)N2CC=C(CC(F)(F)F)C2)cc1-c1cc(OCCO)nc(N2CCOCC2)c1` [Example 96, N-[2-fluoro-5-[2-(2-hydroxyethoxy)-6-(morpholin-4-yl)pyridin-4-yl]-4-methylphenyl]-3-(2,2,2-trifluoroethyl)-2,5-dihydropyrrole-1-carboxamide], the IC50 is less than 0.01 µM.

In the case of `C/C(C#N)=C1/CCN(C(=O)Nc2cc(-c3cc(OCCO)nc(N4CCOCC4)c3)c(C)cc2F)C1` [Example 98, (3E)-3-(1-cyanoethylidene)-N-[2-fluoro-5-[2-(2-hydroxyethoxy)-6-(morpholin-4-yl)pyridin-4-yl]-4-methylphenyl]pyrrolidine-1-carboxamide], the IC50 was less than 0.01 µM.
